Measured values reported in US9187486B2 (AMGEN INC., priority 2011, dated 2015).
Where a name gives a salt, the structure may show the parent alone. Read-outs that look alike come from different tables or passages of the source.

Columns and labels:
[1] = system: KMS-12-BM myeloma cell line; experiment: Pim cell assay: phospho-BAD (S112) and total BAD in KMS-12-BM cells; type: cell-based; conditions: 1 hour and 50 minutes incubation, read-out: KMS-12-BM IC50 IP
Description: The KMS-12-BM myeloma cell line was used to determine the in vitro cellular inhibition of Pim kinases. Disruption of Pim signaling by Pim inhibitors was determined by measuring the levels of phospho-BAD (S112) and total BAD. […] The cells were then incubated overnight at 37° C., 5% CO2. […] In addition to the 10-point dosing curve of the test compound, DMSO alone was run as a control. This dilution in DMSO was then diluted again into cell growth medium. Aliquots (11.1 uL) of the compound diluted in growth medium were then transferred to the appropriate wells of the 96-well plates containing cells to yield a final DMSO concentration of 0.3%. The cell plates were then incubated with compound for 1 hour and 50 minutes at 37° C., 5% CO2. After the 1 hour and 50 min incubation, the cell plates were spun at 1000 RPM for 10 minutes and the compound-containing medium was removed. […] The cell plates containing lysis buffer were then immediately stored at −70° C. These prepared lysates were then assayed for phospho-(S112) and total-BAD according to the manufacturer's protocol (Meso Scale Diagnostics, Cat # K15103D-3). The plates were read on the MSD Sector Imager 6000, and results were calculated according to the assay protocol: ((% Phosphoprotein=((2×Phospho signal)/(Phospho signal+Total signal))×100)).

Pim-1 = Pim-1 (Homo sapiens (Human), UniProt P11309); experiment: Pim enzyme assay (HTRF, phosphorylation of biotinylated-BAD (S112) peptide), Pim-1; type: biochemical
Pim-1, sequence (P11309 whole entry): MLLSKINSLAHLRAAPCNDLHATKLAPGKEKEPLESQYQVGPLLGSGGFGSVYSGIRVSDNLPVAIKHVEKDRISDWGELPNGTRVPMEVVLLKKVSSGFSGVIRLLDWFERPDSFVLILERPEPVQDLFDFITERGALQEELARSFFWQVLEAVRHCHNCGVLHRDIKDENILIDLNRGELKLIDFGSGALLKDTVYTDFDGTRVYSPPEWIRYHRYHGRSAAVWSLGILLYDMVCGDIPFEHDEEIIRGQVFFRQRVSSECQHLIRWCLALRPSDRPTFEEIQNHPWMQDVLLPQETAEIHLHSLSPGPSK
From the text: (§1) Full-length human cDNAs encoding Pim-1 (MGC ID 3913552) or Pim-2 (IMAGE ID 5092935) were purchased from Invitrogen, Carlsbad, Calif. These cDNAs were used as templates in PCR reactions to produce full-length DNA clones of the PIMs. Oligonucleotide PCR primers for Pim-1 were 5′-[…]-3′ and 5′-[…]-3′. Oligonucleotide PCR primers for Pim-2 were 5′-[…]-3′ and 5′-[…]-3′. PCR products were digested with BclI and EcoRI for Pim-1 and BamHI and EcoRI for Pim-2 and ligated into a modified baculovirus transfer vector (pFastBac 1) cleaved with BamHI and EcoRI. For bacterial expression, the same cleaved PCR products encoding Pim-1 or Pim-2 were ligated into a modified E. coli expression vector pET28(a) cleaved with BamHI and EcoRI. Amino-terminal hexahistidine tags followed by a thrombin cleavage site were previously added to the vectors using standard methods of molecular biology. Recombinant baculoviruses expressing Pim-1 or Pim-2 were made using standard methods (Fastbac manual, Invitrogen, Carlsbad, Calif.). Infection of Sf9 cells was done at an m.o.i. of greater than 5 for 24-48 h. Cells were harvested by centrifugation and frozen at −80 C. For E. coli expression, cells carrying pET28-His6-Th-Pim-1 or pET28-His6-Th-Pim-2 were picked from a single colony and grown o/n in LB media. The o/n culture was used to inoculate a 2 liter flask with 500 mL media. This was grown o/n and used to inoculate 15-20 liters of Terrific Broth in a New Brunswick Scientific fermentor. The E. coli were grown at 37° C. to and OD600>1.6. The temperature was dropped to 18° C. and o/n expression was induced with 0.5 mM IPTG. Cells were harvested by centrifugation and frozen at −80° C.
(§2) The frozen cell pellets were thawed by stirring in chilled lysis buffer (0.05 M HEPES, pH 8.0, 0.25 M NaCl, 0.01 M 2-mercaptoethanol, 10% (w/v) glycerol, 0.5% (v/v) protease inhibitor cocktail (Sigma P-8340) at a ratio of 1 L/200 g cells until homogeneous. The thawed suspension was applied to a microfluidizer at 10,000 PSI to disrupt the cells and the whole lysates were clarified by centrifugation at 50,000×g for 90 min, 4° C. Imidazole was added to the clarified lysate to a final concentration of 2.5 mM and the lysate was mixed with 10 mL of Talon resin (Clontech) and the slurry rocked gently overnight at 4° C. The slurry was centrifuged at 1,000×g for 5 min, the supernatant decanted, and the resin suspended in 40 mL of lysis wash buffer (lysis buffer at 0.75 M NaCl). This step was repeated 3× and the resin was transferred to a 2.5 cm glass column. Ten column volumes of wash buffer (0.05 M HEPES, pH 8.0, 0.1 M NaCl, 0.01 M 2-mercaptoethanol, 10% (w/v) glycerol) were applied to the resin followed by 10 column volumes of elution buffer (0.05 M HEPES, pH 8.0, 0.25 M NaCl, 0.01 M 2-mercaptoethanol, 10% (w/v) glycerol, 0.1 M imidazole). Fractions were analyzed by SDS-PAGE and those containing the protein of interest were pooled and concentrated. The concentrated protein was applied to an Amersham Superdex 75 (XK 26/60) column equilibrated in 0.025 M Tris-HCl, pH 7.5, 0.1 M NaCl, 0.01 M 2-mercaptoethanol, 10% (w/v) glycerol. […] Fractions containing the monomeric protein of interest were pooled, concentrated to ˜2 mg/mL, and stored at −80° C.
(§3) The phosphorylation of biotinylated-BAD (S112) peptide by full length recombinant Pim-1, Pim-2, or Pim-3 protein was detected with streptavidin:Allophycocyanin (APC) conjugate and a europium (Eu) labeled antibody directed against phosphorylated-BAD (S112). Excitation of Eu by a high energy laser light (337 nm) leads to a transfer of energy to the APC molecule, and results in an emission at 665 nm. The fluorescence is directly proportional to the amount of phosphorylated BAD peptide present in the reaction.

Pim-2 = Pim-2 (Homo sapiens (Human), UniProt Q9P1W9); experiment: Pim enzyme assay (HTRF, phosphorylation of biotinylated-BAD (S112) peptide), Pim-2; type: biochemical; conditions: full length recombinant Pim-2, biotinylated-BAD (S112) peptide, HTRF; read-out: Pim2_IC50
Pim-2, sequence (Q9P1W9 whole entry): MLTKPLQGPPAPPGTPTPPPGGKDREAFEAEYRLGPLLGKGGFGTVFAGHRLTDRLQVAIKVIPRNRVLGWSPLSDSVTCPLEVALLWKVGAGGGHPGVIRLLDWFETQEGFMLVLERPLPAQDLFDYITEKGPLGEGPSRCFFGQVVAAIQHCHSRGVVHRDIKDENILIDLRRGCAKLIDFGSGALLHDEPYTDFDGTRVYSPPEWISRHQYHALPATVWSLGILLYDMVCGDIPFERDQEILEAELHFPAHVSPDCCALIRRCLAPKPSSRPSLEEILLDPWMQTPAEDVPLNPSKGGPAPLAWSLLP
From the text: as §1, §2, §3

[2] = full length recombinant Pim-1, biotinylated-BAD (S112) peptide, HTRF, 96-well, read-out: Pim-1 IC50 IP
[3] = full length recombinant Pim-1, biotinylated-BAD (S112) peptide, HTRF, read-out: Pim_1_IC50

For `C[C@@H]1CN(c2ccncc2Nc2ncc3ccc(-c4c(F)cccc4F)nn23)[C@@H](C)CN1` (single isomer, unassigned) [Example 52, 2-(2,6-difluorophenyl)-N-(4-((trans)-2,5-dimethyl-1-piperazinyl)-3-pyridinyl)imidazo[1,5-b]pyridazin-7-amine], the IC50 ([1]; Homo sapiens, KMS-12-BM) was > 15.8 µM.

Work on `N[C@@H]1C=C(c2ccncc2Nc2ncc3ccc(-c4c(F)cccc4F)nn23)CCC1` (single isomer, unassigned) [Example 83, N-(4-(3-aminocyclohex-1-en-1-yl)pyridin-3-yl)-2-(2,6-difluorophenyl)imidazo[1,5-b]pyridazin-7-amine tris(2,2,2-trifluoroacetate)] yielded an IC50 ([1]; Homo sapiens, KMS-12-BM) of 1.09 µM and an IC50 (Pim-1; [2]) of 0.0011 µM.

`N[C@@H]1CN(c2ccncc2Nc2ncc3ccc(-c4c(F)cccc4F)nn23)CC[C@H]1F` (single isomer, unassigned) [Example 45, N-(4-(trans-3-amino-4-fluoropiperidin-1-yl)pyridin-3-yl)-2-(2,6-difluorophenyl)imidazo[1,5-b]pyridazin-7-amine] showed an IC50 [1] of 1.07 µM.

In the case of `C[C@H]1CN(c2ccncc2Nc2ncc3ccc(-c4c(F)cccc4F)nn23)[C@@H](C)CN1` [Example 49, 2-(2,6-difluorophenyl)-N-(4-((2S,5S)-2,5-dimethylpiperazin-1-yl)pyridin-3-yl)imidazo[1,5-b]pyridazin-7-amine], the IC50 ([1]; Homo sapiens, KMS-12-BM) is reported as 12.1 µM.

`C[C@@H]1C[C@H](N)CN(c2ccncc2Nc2ncc3ccc(-c4c(F)cccc4F)nn23)C1` (racemic) [Example 37, rac-N-(4-((cis)-3-amino-5-methylpiperidin-1-yl)pyridin-3-yl)-2-(2,6-difluorophenyl)imidazo[1,5-b]pyridazin-7-amine tris(2,2,2-trifluoroacetate)] gave an IC50 ([1]; Homo sapiens, KMS-12-BM) of 0.095 µM.

Compound `C[C@H]1CC[C@@H](N)CN1c1ccncc1Nc1ncc2ccc(-c3ncccc3F)nn12` (single isomer, unassigned) [Example 94, N-(4-((cis)-5-amino-2-methylpiperidin-1-yl)pyridin-3-yl)-2-(3-fluoropyridin-2-yl)imidazo[1,5-b]pyridazin-7-amine tris(2,2,2-trifluoroacetate)] has an IC50 ([1]; tris(2,2,2-trifluoroacetate)) of 14.1 µM.

`N[C@@H]1CN(c2ccncc2Nc2ncc3ccc(-c4c(F)cccc4F)nn23)CC[C@H]1F` (racemic) [Example 43, rac-N-(4-(trans-3-amino-4-fluoropiperidin-1-yl)pyridin-3-yl)-2-(2,6-difluorophenyl)imidazo[1,5-b]pyridazin-7-amine] was tested, and the IC50 ([1]; Homo sapiens, KMS-12-BM) was 0.465 µM.

For `C[C@H]1CC[C@H](N)CN1c1ccncc1Nc1ncc2ccc(-c3c(F)cccc3F)nn12` (single isomer, unassigned) [Example 88, N-(4-(5-amino-2-methylpiperidin-1-yl)pyridin-3-yl)-2-(2,6-difluorophenyl)imidazo[1,5-b]pyridazin-7-amine tris(2,2,2-trifluoroacetate)], the IC50 ([1]; tris(2,2,2-trifluoroacetate)) was 9.82 µM.

Work on `C[C@@H]1C[C@H](N)CN(c2ccncc2Nc2ncc3ccc(-c4c(F)cccc4F)nn23)C1` (single isomer, unassigned) [Example 39, N-(4-((cis)-3-amino-5-methylpiperidin-1-yl)pyridin-3-yl)-2-(2,6-difluorophenyl)imidazo[1,5-b]pyridazin-7-amine] yielded an IC50 [1] of 1.75 µM.

For `C[C@@H]1C[C@H](N)CN(c2ccncc2Nc2ncc3ccc(-c4c(F)cccc4F)nn23)C1` (single isomer, unassigned) [Example 38, N-(4-((cis)-3-amino-5-methylpiperidin-1-yl)pyridin-3-yl)-2-(2,6-difluorophenyl)imidazo[1,5-b]pyridazin-7-amine], the IC50 [1] was 0.0276 µM.

`C[C@H]1CC[C@H](N)CN1c1ccncc1Nc1ncc2ccc(-c3ncccc3F)nn12` (single isomer, unassigned) [Example 97, N-(4-((trans)-5-amino-2-methylpiperidin-1-yl)pyridin-3-yl)-2-(3-fluoropyridin-2-yl)imidazo[1,5-b]pyridazin-7-amine tris(2,2,2-trifluoroacetate)] showed an IC50 ([1]; Homo sapiens, KMS-12-BM) of 0.362 µM.

Compound `O[C@H]1CCCN(c2ccncc2Nc2ncc3ccc(-c4c(F)cccc4F)nn23)C1` [Example 19, (3S)-1-(3-((2-(2,6-difluorophenyl)imidazo[1,5-b]pyridazin-7-yl)amino)-4-pyridinyl)-3-piperidinol] has an IC50 (Pim-2) of 0.03 µM and an IC50 (Pim-1; [3]) of 0.003 µM.

`Clc1ccccc1-c1ccc2cnc(Nc3cnccc3O[C@@H]3CCCNC3)n2n1` [Example 10, 2-(2-chlorophenyl)-N-(4-((3R)-3-piperidinyloxy)-3-pyridinyl)imidazo[1,5-b]pyridazin-7-amine bis(2,2,2-trifluoroacetate)] was tested, and the IC50 (Pim-2) was > 1 µM and the IC50 (Pim-1; [3]) was 0.409 µM.

With `CN(C)c1ccncc1Nc1ncc2ccc(-c3c(F)cccc3F)nn12` [Example 26, N^3-(2-(2,6-difluorophenyl)imidazo[1,5-b]pyridazin-7-yl)-N^4,N^4-dimethyl-3,4-pyridinediamine] the IC50 (Pim-2) was > 1 µM and the IC50 (Pim-1; [3]) was 0.534 µM.

`C[C@H]1CC[C@H](N)CN1c1ccncc1Nc1ncc2ccc(-c3c(F)cccc3F)nn12` (single isomer, unassigned) [Example 87, N-(4-(5-amino-2-methylpiperidin-1-yl)pyridin-3-yl)-2-(2,6-difluorophenyl)imidazo[1,5-b]pyridazin-7-amine tris(2,2,2-trifluoroacetate)] gave an IC50 ([1]; tris(2,2,2-trifluoroacetate)) of 0.0488 µM.

`N[C@@H]1C=C(c2ccncc2Nc2ncc3ccc(-c4c(F)cccc4F)nn23)CCC1` (racemic) [Example 82, rac-N-(4-(3-aminocyclohex-1-en-1-yl)pyridin-3-yl)-2-(2,6-difluorophenyl)imidazo[1,5-b]pyridazin-7-amine tris(2,2,2-trifluoroacetate)] was tested, and the IC50 ([1]; Homo sapiens, KMS-12-BM) was 1.2 µM and the IC50 (Pim-1; [2]) was 0.0012 µM.

`N[C@H]1CCCN(c2sncc2Nc2ncc3ccc(-c4c(F)cccc4F)nn23)C1` [Example 31, N-(5-((3S)-3-amino-1-piperidinyl)-4-isothiazolyl)-2-(2,6-difluorophenyl)imidazo[1,5-b]pyridazin-7-amine dihydrochloride] showed an IC50 (Pim-2) of 0.136 µM and an IC50 (Pim-1; read-out: Pim_1_IC50) of 0.05 µM.
